Like-named read-outs stand apart in the source and are kept apart here.
Tests used:
[1] = target: T1, human OX2R (Homo sapiens, UniProt O43614); test: Agonist activity against OX2R: intracellular calcium (Fura-2AM, FDSS7000) in CHOOX2R cells; type: cell-based; conditions: relative to orexin-A as full agonist (100%)
T1 construct: expressed in transfected cells; host or cells: CHO (Chinese hamster ovary) cells, line CHOOX2R, co-expressing NFAT-luciferase
T1 sequence (O43614 1-444): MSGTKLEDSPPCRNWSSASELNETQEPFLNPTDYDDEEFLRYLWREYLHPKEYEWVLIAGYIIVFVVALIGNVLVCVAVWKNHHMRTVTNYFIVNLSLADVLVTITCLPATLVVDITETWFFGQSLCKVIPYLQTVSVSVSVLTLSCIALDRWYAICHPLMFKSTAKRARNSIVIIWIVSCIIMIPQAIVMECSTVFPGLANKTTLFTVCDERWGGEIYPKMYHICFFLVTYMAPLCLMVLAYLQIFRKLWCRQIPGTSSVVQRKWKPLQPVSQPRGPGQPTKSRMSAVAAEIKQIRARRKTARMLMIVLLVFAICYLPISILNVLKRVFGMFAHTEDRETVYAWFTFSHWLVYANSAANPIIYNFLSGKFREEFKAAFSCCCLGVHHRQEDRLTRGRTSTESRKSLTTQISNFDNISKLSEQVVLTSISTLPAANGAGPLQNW
Procedure: (§1) Evaluation of Agonist Activity Against OX1R and OX2R
(§2) NAFT-luciferase gene and human OX1R gene were constitutively expressed in CHO cell, which is a cell line derived from Chinese hamster ovary to establish a cell line (CHOOX1R) and NAFT-luciferase gene and human OX2R gene were constitutively expressed in CHO cell to establish a cell line (CHOOX2R). The respective cells were seeded in a 96-well Multiplate at 10,000 cells/well and cultured in a 5% FBS (Thermo Scientific)-added DMEM medium (Sigma-Aldrich) for 48 hr. The medium was removed, an assay buffer (20 mM HEPES (Sigma-Aldrich), Hanks' balanced salt solution (Gibco), 0.1% BSA (Sigma-Aldrich), 2.5 mM probenecid acid (Wako Pure Chemical Industries, Ltd.)) (100 μL) containing 5 μM Fura-2AM (Cayman Chemical) was added, and the cells were incubated for 60 min. The buffer containing Fura-2AM was removed, and an assay buffer (75 μL) was added. An assay buffer (25 μL) containing a test compound was added thereto to start the reaction. Changes in the intracellular calcium ion concentration due to the reaction were measured by measuring the fluorescence intensity ratio by dual wavelength excitation at 340 and 380 nm, by using FDSS7000 (Hamamatsu Photonics K.K.). The test compound was dissolved in DMSO to 10 mM, and diluted with the assay buffer to a final concentration of 10^−7M to 10^−5M (final concentration of DMSO 1%).
(§3) (As used herein, Response in Table 21 to Table 27 is a value obtained by dividing the agonist activity value, when the test compound is evaluated with orexin-A as a full-agonist (maximum value of agonist activity: 100%), at 10 μM, 1.0 μM, 0.1 μM by the agonist activity value of orexin-A.)

[2] = target: T2, human OX1R (Homo sapiens, UniProt O43613); test: Agonist activity against OX1R: intracellular calcium (Fura-2AM, FDSS7000) in CHOOX1R cells; type: cell-based; conditions: for Emax at 0.1 µM / Emax at 1 µM / Emax at 10 µM: read-out: Response (%) OX1R
T2 construct: expressed in transfected cells; host or cells: CHO (Chinese hamster ovary) cells, line CHOOX1R, co-expressing NFAT-luciferase
T2 sequence (O43613 1-425): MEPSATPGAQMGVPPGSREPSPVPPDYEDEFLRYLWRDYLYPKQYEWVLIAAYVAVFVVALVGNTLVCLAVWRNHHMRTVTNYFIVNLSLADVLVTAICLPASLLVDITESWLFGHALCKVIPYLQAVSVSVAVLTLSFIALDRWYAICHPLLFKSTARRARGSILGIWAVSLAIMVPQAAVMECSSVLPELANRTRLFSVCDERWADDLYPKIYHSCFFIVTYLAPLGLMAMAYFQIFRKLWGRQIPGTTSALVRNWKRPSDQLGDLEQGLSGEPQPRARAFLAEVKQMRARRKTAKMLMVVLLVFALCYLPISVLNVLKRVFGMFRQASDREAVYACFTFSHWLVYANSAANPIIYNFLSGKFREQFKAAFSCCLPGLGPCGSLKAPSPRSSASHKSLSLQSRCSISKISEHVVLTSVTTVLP
Procedure: as §1, §2, §3

[3] = 0.1 μM test compound, relative to orexin-A as full agonist (100%)
[4] = 1.0 μM test compound, relative to orexin-A as full agonist (100%)
[5] = 10 μM test compound, relative to orexin-A as full agonist (100%)
[6] = test compound 0.1 μM, relative to orexin-A as full agonist (100%)
[7] = test compound 1.0 μM, relative to orexin-A as full agonist (100%)
[8] = test compound 10 μM, relative to orexin-A as full agonist (100%)

## COc1ccc(-c2cccc(C(=O)N(C)C)c2)cc1S(=O)(=O)Nc1cccc(Nc2c(Nc3cccc(C)c3)c(=O)c2=O)c1 [Example 80, 3′-(N-(3-((3,4-dioxo-2-(m-tolylamino)cyclobut-1-en-1-yl)amino)phenyl)sulfamoyl)-4′-methoxy-N,N-dimethyl-[1,1′-biphenyl]-3-carboxamide]
[1]; 0.1 μM test compound
  Response (%) OX2R: <5%
[1]; 1.0 μM test compound
  Response (%) OX2R: <5%
[1]; 10 μM test compound
  Response (%) OX2R: 23%
[2]; [3]
  Emax at 0.1 µM: < 5%
[2]; [4]
  Emax at 1 µM: < 5%
[2]; [5]
  Emax at 10 µM: < 5%

## COc1ccc(-c2cccc(C(=O)N(C)C)c2)cc1S(=O)(=O)Nc1cccc(N(C)C(=O)N(C)c2cccc(N(C)C)c2)c1 [Example 126, 3′-(N-(3-(3-(3-(dimethylamino)phenyl)-1,3-dimethylureido)phenyl)sulfamoyl)-4′-methoxy-N,N-dimethyl-[1,1′-biphenyl]-3-carboxamide]
[1]; test compound 0.1 μM
  Response (%) OX2R: 7%
[1]; test compound 1.0 μM
  Response (%) OX2R: 37%
[1]; test compound 10 μM
  Response (%) OX2R: 85%
[2]
  Emax at 0.1 µM: 5%
  Emax at 1 µM: 5%
  Emax at 10 µM: < 5%

## COc1ccc(-c2cccc(C(=O)N(C)C)c2)cc1S(=O)(=O)Nc1cccc(NC(=O)Nc2ccccc2C)c1 [Example 51]
[1]; 0.1 μM test compound
  Response (%) OX2R: 93%
[1]; 1.0 μM test compound
  Response (%) OX2R: 85%
[1]; 10 μM test compound
  Response (%) OX2R: 88%
[2]; [3]
  Response (%) OX1R: <5%
[2]; [4]
  Response (%) OX1R: 36%
[2]; [5]
  Response (%) OX1R: 67%

## COc1ccc(-c2cccc(C(=O)N(C)C)c2)cc1S(=O)(=O)Nc1cccc(NC(=O)Nc2ccc(NC(=NC(=O)OC(C)(C)C)NC(=O)OC(C)(C)C)cc2)c1 [Example 58]
[1]; 0.1 μM test compound
  Response (%) OX2R: <5%
[1]; 1.0 μM test compound
  Response (%) OX2R: <5%
[1]; 10 μM test compound
  Response (%) OX2R: 63%
[2]; [3]
  Response (%) OX1R: <5%
[2]; [4]
  Response (%) OX1R: <5%
[2]; [5]
  Response (%) OX1R: <5%

## COc1ccc(-c2cccc(C(=O)N(C)C)c2)cc1S(=O)(=O)Nc1cccc(NC(=N)Nc2ccccc2)c1 [Example 77, 4′-methoxy-N,N-dimethyl-3′-(N-(3-(3-phenylguanidino)phenyl)sulfamoyl)-[1,1′-biphenyl]-3-carboxamide]
[1]; 0.1 μM test compound
  Response (%) OX2R: <5%
[1]; 1.0 μM test compound
  Response (%) OX2R: 51%
[1]; 10 μM test compound
  Response (%) OX2R: 99%
[2]; [3]
  Emax at 0.1 µM: < 5%
[2]; [4]
  Emax at 1 µM: < 5%
[2]; [5]
  Emax at 10 µM: < 5%

## COc1ccc(-c2cccc(C(=O)N(C)C)c2)cc1S(=O)(=O)Nc1cccc(NC(=O)Nc2ccc([N+](=O)[O-])cc2)c1 [Example 61]
[1]; 0.1 μM test compound
  Response (%) OX2R: 24%
[1]; 1.0 μM test compound
  Response (%) OX2R: 105%
[1]; 10 μM test compound
  Response (%) OX2R: 99%
[2]; [3]
  Response (%) OX1R: <5%
[2]; [4]
  Response (%) OX1R: <5%
[2]; [5]
  Response (%) OX1R: 7%

## CCN(Cc1cccnc1)C(=O)c1ccc(OC)c(S(=O)(=O)Nc2cccc(NC(=O)Nc3ccccc3N(C)C)c2)c1 [Example 113]
[1]; test compound 0.1 μM
  Response (%) OX2R: <5%
[1]; test compound 1.0 μM
  Response (%) OX2R: 6%
[1]; test compound 10 μM
  Response (%) OX2R: 73%
[2]; [6]
  Response (%) OX1R: <5%
[2]; [7]
  Response (%) OX1R: <5%
[2]; [8]
  Response (%) OX1R: <5%

## COc1ccc(-c2cccc(C(=O)N(C)C)c2)cc1S(=O)(=O)Nc1cccc(NC(=O)Nc2cccc(N(C)C)c2)c1OC [Example 123, 3′-(N-(3-(3-(3-(dimethylamino)phenyl)ureido)-2-methoxyphenyl)sulfamoyl)-4′-methoxy-N,N-dimethyl-[1,1′-biphenyl]-3-carboxamide]
[1]; test compound 0.1 μM
  Response (%) OX2R: 63%
[1]; test compound 1.0 μM
  Response (%) OX2R: 111%
[1]; test compound 10 μM
  Response (%) OX2R: 111%
[2]
  Emax at 0.1 µM: < 5%
  Emax at 1 µM: 6%
  Emax at 10 µM: < 5%

## COc1ccc(-c2cccc(C(=O)N(C)C)c2)cc1S(=O)(=O)Nc1cccc(NC(=O)c2cccc3ccccc23)c1 [Example 10]
[1]; 0.1 μM test compound
  Response (%) OX2R: 14%
[1]; 1.0 μM test compound
  Response (%) OX2R: 80%
[1]; 10 μM test compound
  Response (%) OX2R: 98%
[2]; [3]
  Response (%) OX1R: 5%
[2]; [4]
  Response (%) OX1R: 6%
[2]; [5]
  Response (%) OX1R: 11%

## COc1ccc(-c2cccc(C(=O)N(C)C)c2)cc1S(=O)(=O)Nc1cccc(NC(=O)c2ccccc2N(C)C)c1 [Example 6]
[1]; 0.1 μM test compound
  Response (%) OX2R: 9%
[1]; 1.0 μM test compound
  Response (%) OX2R: 17%
[1]; 10 μM test compound
  Response (%) OX2R: 32%
[2]; [3]
  Response (%) OX1R: 7%
[2]; [4]
  Response (%) OX1R: 7%
[2]; [5]
  Response (%) OX1R: 6%

## COc1ccc(-c2cccc(C(=O)N(C)C)c2)cc1S(=O)(=O)Nc1cccc(/N=N/c2ccc(N(C)C)cc2CO)c1 [Example 97, (E)-3′-(N-(3-((4-(dimethylamino)-2-(hydroxymethyl)phenyl)diazenyl)phenyl)sulfamoyl)-4′-methoxy-N,N-dimethyl-[1,1-biphenyl]-3-carboxamide]
[1]; test compound 0.1 μM
  Response (%) OX2R: 25%
[1]; test compound 1.0 μM
  Response (%) OX2R: 84%
[1]; test compound 10 μM
  Response (%) OX2R: 108%
[2]; [6]
  Emax at 0.1 µM: < 5%
[2]; [7]
  Emax at 1 µM: < 5%
[2]; [8]
  Emax at 10 µM: 11%

## CCN(Cc1cccnc1)C(=O)c1ccc(OC)c(S(=O)(=O)Nc2cccc(NC(=O)Nc3cccc(N(C)C)c3)c2)c1 [Example 102]
[1]; test compound 0.1 μM
  Response (%) OX2R: 61%
[1]; test compound 1.0 μM
  Response (%) OX2R: 97%
[1]; test compound 10 μM
  Response (%) OX2R: 100%
[2]; [6]
  Response (%) OX1R: <5%
[2]; [7]
  Response (%) OX1R: <5%
[2]; [8]
  Response (%) OX1R: <5%

## COc1ccc(-c2cccc(C(=O)N(C)C)c2)cc1S(=O)(=O)Nc1cccc(NC(=O)Nc2ccc(N(C)C)cc2)c1 [Example 39]
[1]; 0.1 μM test compound
  Response (%) OX2R: 73%
[1]; 1.0 μM test compound
  Response (%) OX2R: 59%
[1]; 10 μM test compound
  Response (%) OX2R: 53%
[2]; [3]
  Response (%) OX1R: <5%
[2]; [4]
  Response (%) OX1R: <5%
[2]; [5]
  Response (%) OX1R: 32%

## COc1ccc(-c2cccc(C(=O)N(C)C)c2)cc1S(=O)(=O)Nc1cccc(NC(=O)c2ccccc2Br)c1 [Example 2]
[1]; 0.1 μM test compound
  Response (%) OX2R: <5%
[1]; 1.0 μM test compound
  Response (%) OX2R: 26%
[1]; 10 μM test compound
  Response (%) OX2R: 74%
[2]; [3]
  Response (%) OX1R: 13%
[2]; [4]
  Response (%) OX1R: 11%
[2]; [5]
  Response (%) OX1R: 32%

## COc1ccc(-c2cccc(C(=O)N(C)C)c2)cc1S(=O)(=O)Nc1cccc(NC(=O)Nc2cccnc2)c1 [Example 69]
[1]; 0.1 μM test compound
  Response (%) OX2R: 7%
[1]; 1.0 μM test compound
  Response (%) OX2R: 90%
[1]; 10 μM test compound
  Response (%) OX2R: 127%
[2]; [3]
  Response (%) OX1R: 6%
[2]; [4]
  Response (%) OX1R: 6%
[2]; [5]
  Response (%) OX1R: 6%

## COc1ccc(-c2cccc(C(=O)N(C)C)c2)cc1S(=O)(=O)Nc1cccc(N)c1 [Example 99]
[1]; test compound 0.1 μM
  Response (%) OX2R: 19%
[1]; test compound 1.0 μM
  Response (%) OX2R: 14%
[1]; test compound 10 μM
  Response (%) OX2R: 76%
[2]; [6]
  Response (%) OX1R: 8%
[2]; [7]
  Response (%) OX1R: 8%
[2]; [8]
  Response (%) OX1R: 9%

## COc1ccc(-c2cccc(C(=O)N(C)C)c2)cc1S(=O)(=O)Nc1cccc(NCc2ccccc2Br)c1 [Example 28]
[1]; 0.1 μM test compound
  Response (%) OX2R: 6%
[1]; 1.0 μM test compound
  Response (%) OX2R: 54%
[1]; 10 μM test compound
  Response (%) OX2R: 81%
[2]; [3]
  Response (%) OX1R: <5%
[2]; [4]
  Response (%) OX1R: <5%
[2]; [5]
  Response (%) OX1R: <5%

— patent US10351522B2, “Sulfonamide derivative and pharmaceutically acceptable acid addition salt thereof” (UNIVERSITY OF TSUKUBA, priority 2015, dated 2019)
